Experiments:
[1] = biological target: T1, WT-PARP10cat (Homo sapiens, UniProt Q53GL7); assay: SRPK2 MARylation assay with WT-PARP10cat; details: 100 μM NAD+ analogue, 2 hours at 30° C., in-gel fluorescence
T1 sequence (Q53GL7 806-1025 limits assumed): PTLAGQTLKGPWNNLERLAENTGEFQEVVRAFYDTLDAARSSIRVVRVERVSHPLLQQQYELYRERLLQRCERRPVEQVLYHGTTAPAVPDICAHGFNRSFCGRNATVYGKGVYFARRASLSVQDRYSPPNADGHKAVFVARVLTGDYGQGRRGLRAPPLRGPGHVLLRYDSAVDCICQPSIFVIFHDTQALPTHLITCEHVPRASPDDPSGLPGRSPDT

[2] = biological target: L926A-PARP10cat (Homo sapiens, UniProt Q53GL7, L926A); assay: SRPK2 MARylation assay with L926A-PARP10cat; details: relative to WT-PARP10cat; 100 μM NAD+ analogue, in-gel fluorescence
[3] = biological target: T2, GFP-WT-PARP10 (Homo sapiens, UniProt Q53GL7); assay: Lysate labeling, HEK 293T cells expressing WT-PARP10; details: HEK 293T lysate, WT-PARP10, 100 μM, click conjugation with biotin-azide
T2 sequence (Q53GL7 1-1025): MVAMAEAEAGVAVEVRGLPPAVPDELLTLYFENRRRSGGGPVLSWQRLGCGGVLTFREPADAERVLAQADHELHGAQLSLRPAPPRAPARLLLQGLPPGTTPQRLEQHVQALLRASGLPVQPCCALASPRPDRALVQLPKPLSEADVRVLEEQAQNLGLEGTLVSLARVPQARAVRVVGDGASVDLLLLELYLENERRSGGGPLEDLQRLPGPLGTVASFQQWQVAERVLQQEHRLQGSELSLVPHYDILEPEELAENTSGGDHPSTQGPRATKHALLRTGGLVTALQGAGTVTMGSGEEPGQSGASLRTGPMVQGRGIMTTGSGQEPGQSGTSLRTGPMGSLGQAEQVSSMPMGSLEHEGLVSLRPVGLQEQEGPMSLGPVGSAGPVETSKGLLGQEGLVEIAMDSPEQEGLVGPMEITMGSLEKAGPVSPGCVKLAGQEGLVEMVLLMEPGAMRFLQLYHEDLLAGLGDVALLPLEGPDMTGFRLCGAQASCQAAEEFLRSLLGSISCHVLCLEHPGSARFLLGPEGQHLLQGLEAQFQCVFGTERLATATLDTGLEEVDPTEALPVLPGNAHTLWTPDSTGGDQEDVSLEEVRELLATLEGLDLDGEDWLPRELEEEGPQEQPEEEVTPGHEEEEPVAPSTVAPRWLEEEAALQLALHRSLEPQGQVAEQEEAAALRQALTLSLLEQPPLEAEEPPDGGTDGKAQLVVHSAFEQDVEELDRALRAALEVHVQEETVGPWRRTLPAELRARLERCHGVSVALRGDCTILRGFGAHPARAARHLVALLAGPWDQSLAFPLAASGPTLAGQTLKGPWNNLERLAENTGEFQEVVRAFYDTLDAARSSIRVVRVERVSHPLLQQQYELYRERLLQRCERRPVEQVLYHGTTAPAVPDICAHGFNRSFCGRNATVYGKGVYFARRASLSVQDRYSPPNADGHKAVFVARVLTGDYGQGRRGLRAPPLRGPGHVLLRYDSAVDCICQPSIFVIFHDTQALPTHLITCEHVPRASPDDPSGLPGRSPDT

[4] = biological target: T3, WT-PARP11 (Homo sapiens, UniProt Q9NR21); assay: Lysate labeling, HEK 293T cells expressing WT-PARP11; details: HEK 293T lysate
T3 sequence (Q9NR21 1-331 isoform Q9NR21-1): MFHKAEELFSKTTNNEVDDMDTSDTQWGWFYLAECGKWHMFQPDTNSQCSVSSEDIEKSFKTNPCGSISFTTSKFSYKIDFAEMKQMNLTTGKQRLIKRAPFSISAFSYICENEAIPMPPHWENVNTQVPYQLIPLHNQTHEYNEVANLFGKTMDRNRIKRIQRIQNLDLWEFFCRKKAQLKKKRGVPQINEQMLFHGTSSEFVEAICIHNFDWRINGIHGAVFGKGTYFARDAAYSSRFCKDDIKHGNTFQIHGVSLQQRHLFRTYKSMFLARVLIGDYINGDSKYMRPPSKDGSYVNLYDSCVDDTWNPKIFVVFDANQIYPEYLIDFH

[5] = biological target: T4, WT-PARP15cat (Homo sapiens, UniProt Q460N3); assay: In vitro SRPK2 MARylation with WT-PARP15cat; format: biochemical
T4 sequence (Q460N3 482-678 limits assumed): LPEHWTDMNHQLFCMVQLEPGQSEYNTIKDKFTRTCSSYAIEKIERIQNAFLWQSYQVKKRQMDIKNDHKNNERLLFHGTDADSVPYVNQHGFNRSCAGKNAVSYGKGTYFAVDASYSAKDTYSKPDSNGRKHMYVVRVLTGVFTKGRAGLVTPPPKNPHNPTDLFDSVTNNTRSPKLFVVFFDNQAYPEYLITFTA

Sequence of L926A-PARP10cat (Q53GL7 806-1025 L926A): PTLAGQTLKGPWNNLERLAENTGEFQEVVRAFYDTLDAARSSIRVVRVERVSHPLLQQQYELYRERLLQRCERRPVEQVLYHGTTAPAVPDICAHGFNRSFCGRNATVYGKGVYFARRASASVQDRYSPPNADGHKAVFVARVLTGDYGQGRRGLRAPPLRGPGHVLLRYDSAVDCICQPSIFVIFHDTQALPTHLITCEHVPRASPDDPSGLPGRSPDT

`C#CCNc1ncnc2c1ncn2[C@@H]1O[C@H](COP(=O)(O)OP(=O)([O-])OC[C@H]2O[C@@H]([n+]3cccc(C(N)=O)c3)[C@H](O)[C@@H]2O)[C@@H](O)[C@H]1O` [6-a-NAD+] was tested, and the “use as substrate to mediate SRPK2 MARylation by WT-PARP10cat” value [1] was “used as a substrate” and the “use as substrate to mediate SRPK2 MARylation by L926A-PARP10cat” value [2] was “to a lesser extent”.

For 5-benzyl-6-a-NAD+ [5-Bn-6-a-NAD+], the “labeling of lysate proteins (streptavidin-HRP)” value [3] was “low-level of background labeling”, the “labeling of lysate proteins (streptavidin-HRP)” value [4] was “Minimal background labeling” and the “use as substrate by WT-PARP15cat to MARylate SRPK2” value [5] was “did not use”.
